In brackets after ≈: the same amount, converted by molar mass. Where two headings read alike, the source gives them in different places.

From publication PMC6270026, “Antibacterial and Herbicidal Activity of Ring-Substituted 2-Hydroxynaphthalene-1-carboxanilides” (Molecules, 2013) come the findings set out here.

In one data set the test system is M. kansasii DSM 44162. The data set is described as follows: In vitro antimycobacterial evaluation (broth dilution MIC). It counts as cell-based. To be noted: Mycobacterium kansasii, DSM44162, 168 h; M. kansasii DSM 44162, 7 days, 37 °C.
Data set [1] concerns human monocytic leukemia THP-1 cells. The data set is described as follows: In vitro cytotoxicity assay (LDH). It counts as cell-based. To be noted: treatment with 20 µmol/L, 24 h. Here is the method:
Human monocytic leukemia THP-1 cells were obtained from the European Collection of Cell Cultures (ECACC, Salisbury, UK; Methods of characterization: DNA Fingerprinting (Multilocus probes) and isoenzyme analysis). These cells were routinely cultured in RPMI 1640 (Lonza, Verviers, Belgium) medium supplemented with 10% fetal bovine serum (FBS, Sigma-Aldrich), 2% L-glutamine, 1% penicillin and streptomycin (Lonza, Verviers, Belgium) at 37 °C with 5% CO2. Cells were passaged at approximately 1 week intervals. Cells were routinely tested for the absence of mycoplasma (Hoechst 33258 staining method). The tested compounds were dissolved in DMSO (Sigma-Aldrich) and added in five increasing concentrations to the cell suspension in the culture medium. The maximum concentration of DMSO in the assays never exceeded 0.1%. Subsequently, the cells were incubated for 24 h at 37 °C with 5% CO2 to various compound concentrations ranging from 0.37 to 20 μmol/L in RPMI 1640 medium. Cell toxicity was determined using a Cytotoxicity Detection Kit^PLUS Lactate dehydrogenase (LDH) assay kit (Roche Diagnostics, Mannheim, Germany) according to the manufacturer’s instructions, as described previously. […] All data were evaluated using GraphPad Prism 5.00 software (GraphPad Software, San Diego, CA, USA).

In data set [2] the test system is Mycobacterium marinum CAMP 5644. As to the kind of experiment: In vitro antimycobacterial evaluation (broth dilution MIC). It counts as cell-based. The settings on record: Mycobacterium marinum, CAMP5644, 504 h, M. marinum CAMP 5644, 21 days, 28 °C.
Another data set has as its system M. smegmatis ATCC 700084. The data set is described as above. It counts as cell-based, Mycobacterium smegmatis. The settings on record: Mycolicibacterium smegmatis, ATCC700084, 72 h; M. smegmatis ATCC 700084, 3 days, 37 °C.
The nature of data set [3]: Lipophilicity determination by RP-HPLC (capacity factor log k). It is filed as physicochemical. The settings on record: isocratic, MeOH 60%/H2O 40%, C18. Put shortly: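 Isocratic RP-HPLC on C18 column, MeOH/H2O 60:40, 1.0 mL/min, column 40 °C, UV detection 210 nm. Dead time taken from KI; k = (tR − tD)/tD, with log k used as lipophilicity index converted to log P scale.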

The subject of data set [4] is photosynthetic electron transport (PET) in spinach chloroplasts. The data set is described as follows: Inhibition of photosynthetic electron transport (PET) in spinach chloroplasts. To be noted: DCPIP photoreduction. It is filed as biochemical, Spinacia oleracea L. Put shortly: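 Chloroplasts in pH 7.2 phosphate buffer with sucrose, MgCl2, NaCl; chlorophyll 30 mg/L, halogen-lamp illumination at 22 °C, compounds in DMSO. PET followed spectrophotometrically as DCPIP photoreduction; IC50 is molar concentration giving 50% drop in oxygen evolution rate versus untreated control.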

The subject of data set [5] is methicillin-resistant Staphylococcus aureus SA 630. As to the kind of experiment: In vitro antibacterial susceptibility testing (broth dilution MIC). It is filed as cell-based. The settings on record: MRSA, clinical isolate SA 630, 24 h, 37 °C.
For data set [6], the system named is Staphylococcus aureus ATCC 29213. The data set is described as above. It is filed as cell-based. The settings on record: ATCC29213; Staphylococcus aureus ATCC 29213, 24 h, 37 °C.
In data set [7] the test system is methicillin-resistant Staphylococcus aureus SA 3202. The data set is described as above. It is filed as cell-based. To be noted: MRSA, read-out: MIC MRSA 3202.
In data set [8] the test system is methicillin-resistant Staphylococcus aureus (MRSA) 63718. The description is as above. To be noted: clinical isolate MRSA 63718, 24 h, 37 °C. It is filed as cell-based.
Where [9] appears, read: clinical isolate SA 3202, 24 h, 37 °C.

As for `O=C(Nc1cccc(C(F)(F)F)c1)c1c(O)ccc2ccccc12` [Compound 7b, 2-Hydroxy-N-(3-trifluoromethylphenyl)naphthalene-1-carboxamide], the minimal inhibitory concentration (MIC) is 93.5 µM (≈ 31 µg/mL) in the data set with M. kansasii DSM 44162; more than 748 µM in data set [2]; more than 748 µM against M. smegmatis ATCC 700084; 374 µM (≈ 124 µg/mL) in [5]; more than 748 µM in data set [6]; 94 µM (≈ 31.1 µg/mL) in [7] (setting [9]). In [8], the lowest concentration to inhibit growth (MIC) was 187 µM (≈ 62 µg/mL). The “lethal effect on THP-1 cells” value in data set [1] is reported as “did not lead to significant lethal effects”. The molecule further registered a log k in [3] of 0.9411. In data set [4], the IC50 came to 45.6 µM.
For `O=C(Nc1ccccc1C(F)(F)F)c1c(O)ccc2ccccc12` [Compound 7a, 2-Hydroxy-N-(2-trifluoromethylphenyl)naphthalene-1-carboxamide], the MIC with M. kansasii DSM 44162 was 96.6 µM (≈ 32 µg/mL); in [2], 96.6 µM (≈ 32 µg/mL); against M. smegmatis ATCC 700084 it was 386 µM (≈ 128 µg/mL); in data set [5], 97.1 µM (≈ 32.2 µg/mL); in data set [6], 97.1 µM (≈ 32.2 µg/mL); in data set [7] (setting [9]), 193 µM (≈ 63.9 µg/mL). Also, the minimum inhibitory concentration (MIC) in data set [8] is 193 µM (≈ 63.9 µg/mL). Moreover, the “lethal effect on THP-1 cells” value in data set [1] is “did not lead to significant lethal effects”. The molecule further registered a log k in [3] of 0.8353. Further, in data set [4], 153 µM corresponded to half-maximal inhibition (IC50).
As for `O=C(Nc1ccccc1Cl)c1c(O)ccc2ccccc12` [Compound 5a, N-(2-chlorophenyl)-2-hydroxynaphthalene-1-carboxamide], the MIC in the data set on M. kansasii DSM 44162 was 107 µM (≈ 31.9 µg/mL); in data set [2] it was 107 µM (≈ 31.9 µg/mL); against M. smegmatis ATCC 700084 it was 107 µM (≈ 31.9 µg/mL); in [5], more than 860 µM; in data set [6], 215 µM (≈ 64 µg/mL); in data set [7] (24 h), more than 860 µM. This molecule also gave an MIC in data set [8] of 860 µM (≈ 256 µg/mL). In addition, the “lethal effect on THP-1 cells” value in data set [1] is “did not lead to significant lethal effects”. In addition, the log k in [3] stood at 0.8984. The same molecule returned an IC50 in [4] of 49.6 µM.
